# Results from patent US20040006070A1, “Intraspinal continuous infusion of midazolam hydrochloride for the treatment of pain” (priority 2002, published 2004).
# Where a name gives a salt, the structure may show the parent alone.
# Experiment: Bloodwork: complete blood count, electrolytes, extended blood chemistry
# Assay type: in vivo, sheep
# Protocol: Indirect blood pressure, pulse recording, pain testing (mechanical stimulus device, cold and warm water baths see description in procedure) and weight were taken on days 1, 3, 7, 15, 22, 29, 36, and 43. Venous blood samples (15 ml drawn from the jugular vein with Vacutainer brand blood collection tubes) for complete blood count, electrolytes, and extended blood chemistry were drawn on days 1, 15, and 43 (mild procedure only light hand restraint necessary).
# [1] = sheep Elmer Fudd #437, 5 mg/day, Day 43
# [2] = sheep Leghorn II #815, 15 mg/day, Baseline
# [3] = sheep Leghorn II #815, 15 mg/day, Day 1
# [4] = sheep Leghorn II #815, 15 mg/day, Day 15
# [5] = sheep Leghorn II #815, 15 mg/day, Day 43
# [6] = sheep Petunia #439, 15 mg/day, Baseline
# [7] = sheep Petunia #439, 15 mg/day, Day 1
# [8] = sheep Petunia #439, 15 mg/day, Day 15
# [9] = sheep Petunia #439, 15 mg/day, Day 43
# [10] = sheep Porky #402, 5 mg/day, Baseline
# [11] = sheep Porky #402, 5 mg/day, Day 1
# [12] = sheep Porky #402, 5 mg/day, Day 15
# [13] = sheep Porky #402, 5 mg/day, Day 43
smiles,measurement,setting,value
"Cc1ncc2n1-c1ccc(Cl)cc1C(c1ccccc1F)=NC2 [Midazolam, midazolam hydrochloride]",CPK,[1],64 U/L
same,Cholesterol,[1],90 mg/dL
same,Creatinine,[1],1.3 mg/dL
same,Differential Count: Atyp lym,[1],0%
same,Differential Count: Bands,[1],0%
same,Differential Count: Eosin,[1],2%
same,Differential Count: Lymph,[1],38%
same,Differential Count: Mono,[1],1%
same,Differential Count: Seg,[1],59%
same,Gamma GT,[1],48 U/L
same,Glucose,[1],83 mg/dL
same,Hct,[1],34.6%
same,Hgb,[1],11.8 g/dL
same,K+,[1],4.3 mEq/l
same,MCH,[1],10.8 pg
same,MCHC,[1],34.2 G/dl
same,MCV,[1],31.7 fL
same,Na+,[1],147 mEq/l
same,Phos,[1],6.2 mg/dL
same,Platlet Count,[1],540000 µL⁻¹
same,RBC,[1],1.09e+07 µL⁻¹
same,Total Bili,[1],0.1 mg/dL
same,Total Prot,[1],6.6 g/dL
same,WBC,[1],4650 µL⁻¹
same,Differential Count: Atyp lym,[2],0%
same,Differential Count: Baso,[2],0%
same,Differential Count: Eosin,[2],4%
same,Differential Count: Lymph,[2],79%
same,Differential Count: Mono,[2],3%
same,Differential Count: Seg,[2],14%
same,Hct,[2],36.9%
same,Hgb,[2],12.5 g/dL
same,MCH,[2],10.7 pg
same,MCHC,[2],33.9 G/dl
same,MCV,[2],31.5 fL
same,Platlet Count,[2],516000 µL⁻¹
same,RBC,[2],1.17e+07 µL⁻¹
same,WBC,[2],6730 µL⁻¹
same,ALT,[3],14 U/L
same,AST,[3],117 U/L
same,Albumin,[3],3.5 g/dL
same,Alk Phos,[3],117 U/L
same,BUN,[3],19 mg/dL
same,CPK,[3],94 U/L
same,Cholesterol,[3],68 mg/dL
same,Creatinine,[3],0.9 mg/dL
same,Differential Count: Atyp lym,[3],0%
same,Differential Count: Baso,[3],0%
same,Differential Count: Eosin,[3],2%
same,Differential Count: Lymph,[3],58%
same,Differential Count: Mono,[3],2%
same,Differential Count: Seg,[3],28%
same,Gamma GT,[3],80 U/L
same,Glucose,[3],80 mg/dL
same,Hct,[3],34.7%
same,Hgb,[3],11.8 g/dL
same,K+,[3],5.0 mEq/l
same,MCH,[3],10.6 pg
same,MCHC,[3],34.0 G/dl
same,MCV,[3],31.1 fL
same,Na+,[3],146 mEq/l
same,Phos,[3],8.3 mg/dL
same,Platlet Count,[3],828000 µL⁻¹
same,RBC,[3],1.11e+07 µL⁻¹
same,Total Bili,[3],0 mg/dL
same,Total Prot,[3],6.3 g/dL
same,WBC,[3],6070 µL⁻¹
same,Differential Count: Atyp lym,[4],0%
same,Differential Count: Baso,[4],0%
same,Differential Count: Eosin,[4],16%
same,Differential Count: Lymph,[4],59%
same,Differential Count: Mono,[4],1%
same,Differential Count: Seg,[4],24%
same,Hct,[4],38.0%
same,Hgb,[4],12.4 g/dL
same,MCH,[4],10.4 pg
same,MCHC,[4],32.7 G/dl
same,MCV,[4],31.8 fL
same,Platlet Count,[4],861000 µL⁻¹
same,RBC,[4],1.2e+07 µL⁻¹
same,WBC,[4],6640 µL⁻¹
same,Differential Count: Atyp lym,[5],0%
same,Differential Count: Baso,[5],1%
same,Differential Count: Eosin,[5],2%
same,Differential Count: Lymph,[5],77%
same,Differential Count: Mono,[5],2%
same,Differential Count: Seg,[5],18%
same,Hct,[5],36.4%
same,Hgb,[5],12.3 g/dL
same,MCH,[5],10.5 pg
same,MCHC,[5],33.7 G/dl
same,MCV,[5],31.2 fL
same,Platlet Count,[5],345000 µL⁻¹
same,RBC,[5],1.17e+07 µL⁻¹
same,WBC,[5],6110 µL⁻¹
same,Differential Count: Atyp lym,[6],0%
same,Differential Count: Bands,[6],0%
same,Differential Count: Eosin,[6],130%
same,Differential Count: Lymph,[6],53%
same,Differential Count: Mono,[6],7%
same,Differential Count: Seg,[6],27%
same,Hct,[6],41.1%
same,Hgb,[6],14.0 g/dL
same,MCH,[6],11.5 pg
same,MCHC,[6],34.2 G/dl
same,MCV,[6],33.6 fL
same,Platlet Count,[6],489000 µL⁻¹
same,RBC,[6],1.22e+07 µL⁻¹
same,WBC,[6],3120 µL⁻¹
same,ALT,[7],0 U/L
same,AST,[7],102 U/L
same,Albumin,[7],3.6 g/dL
same,Alk Phos,[7],43 U/L
same,BUN,[7],10 mg/dL
same,CPK,[7],84 U/L
same,Cholesterol,[7],60 mg/dL
same,Creatinine,[7],1.1 mg/dL
same,Differential Count: Atyp lym,[7],2%
same,Differential Count: Bands,[7],1%
same,Differential Count: Eosin,[7],1%
same,Differential Count: Lymph,[7],50%
same,Differential Count: Mono,[7],6%
same,Differential Count: Seg,[7],40%
same,Gamma GT,[7],84 U/L
same,Glucose,[7],71 mg/dL
same,Hct,[7],42.4%
same,Hgb,[7],14.4 g/dL
same,K+,[7],5.4 mEq/l
same,MCH,[7],11.3 pg
same,MCHC,[7],33.9 G/dl
same,MCV,[7],33.3 fL
same,Na+,[7],152 mEq/l
same,Phos,[7],7.9 mg/dL
same,RBC,[7],1.27e+07 µL⁻¹
same,Total Bili,[7],0 mg/dL
same,Total Prot,[7],6.6 g/dL
same,WBC,[7],2920 µL⁻¹
same,Platlet Count,"sheep Petunia #439, 15 mg/day, Day 1, platelet clumps observed",715• ×10^3/μl
same,ALT,[8],1 U/L
same,AST,[8],94 U/L
same,Albumin,[8],4.0 g/dL
same,Alk Phos,[8],29 U/L
same,BUN,[8],14 mg/dL
same,CPK,[8],105 U/L
same,Cholesterol,[8],61 mg/dL
same,Creatinine,[8],1.2 mg/dL
same,Differential Count: Atyp lym,[8],1%
same,Differential Count: Bands,[8],0%
same,Differential Count: Eosin,[8],2%
same,Differential Count: Lymph,[8],46%
same,Differential Count: Mono,[8],3%
same,Differential Count: Seg,[8],48%
same,Gamma GT,[8],74 U/L
same,Glucose,[8],93 mg/dL
same,Hct,[8],30.8%
same,Hgb,[8],10.1 g/dL
same,K+,[8],4.3 mEq/l
same,MCH,[8],11.2 pg
same,MCHC,[8],32.7 G/dl
same,MCV,[8],34.2 fL
same,Na+,[8],150 mEq/l
same,Phos,[8],4.9 mg/dL
same,RBC,[8],9.02e+06 µL⁻¹
same,Total Bili,[8],0.3 mg/dL
same,Total Prot,[8],7.2 g/dL
same,WBC,[8],3600 µL⁻¹
same,Platlet Count,"sheep Petunia #439, 15 mg/day, Day 15, platelet clumps observed",606• ×10^3/μl
same,ALT,[9],0 U/L
same,AST,[9],97 U/L
same,Albumin,[9],3.6 g/dL
same,Alk Phos,[9],49 U/L
same,BUN,[9],17 mg/dL
same,CPK,[9],91 U/L
same,Cholesterol,[9],65 mg/dL
same,Creatinine,[9],1.2 mg/dL
same,Differential Count: Atyp lym,[9],1%
same,Differential Count: Bands,[9],0%
same,Differential Count: Eosin,[9],7%
same,Differential Count: Lymph,[9],47%
same,Differential Count: Mono,[9],4%
same,Differential Count: Seg,[9],41%
same,Gamma GT,[9],77 U/L
same,Glucose,[9],68 mg/dL
same,Hct,[9],36.0%
same,Hgb,[9],11.8 g/dL
same,K+,[9],5.2 mEq/l
same,MCH,[9],11.2 pg
same,MCHC,[9],32.7 G/dl
same,MCV,[9],34.1 fL
same,Na+,[9],146 mEq/l
same,Phos,[9],6.2 mg/dL
same,Platlet Count,[9],356000 µL⁻¹
same,RBC,[9],1.05e+07 µL⁻¹
same,Total Bili,[9],0.1 mg/dL
same,Total Prot,[9],6.3 g/dL
same,WBC,[9],2300 µL⁻¹
same,Differential Count: Atyp lym,[10],0%
same,Differential Count: Bands,[10],0%
same,Differential Count: Eosin,[10],2%
same,Differential Count: Lymph,[10],48%
same,Differential Count: Mono,[10],2%
same,Differential Count: Seg,[10],48%
same,Hct,[10],40.7%
same,Hgb,[10],13.5 g/dL
same,MCH,[10],12.4 pg
same,MCHC,[10],33.2 g/dL
same,MCV,[10],37.2 fL
same,Platlet Count,[10],215000 µL⁻¹
same,RBC,[10],1.09e+07 µL⁻¹
same,WBC,[10],3530 µL⁻¹
same,ALT,[11],3 U/L
same,AST,[11],67 U/L
same,Albumin,[11],3.5 g/dL
same,Alk Phos,[11],37 U/L
same,BUN,[11],10 mg/dL
same,CPK,[11],73 U/L
same,Cholesterol,[11],71 mg/dL
same,Creatinine,[11],1.3 mg/dL
same,Differential Count: Atyp lym,[11],0%
same,Differential Count: Bands,[11],0%
same,Differential Count: Eosin,[11],1%
same,Differential Count: Lymph,[11],41%
same,Differential Count: Mono,[11],5%
same,Differential Count: Seg,[11],53%
same,Gamma GT,[11],46 U/L
same,Glucose,[11],72 mg/dL
same,Hct,[11],40.4%
same,Hgb,[11],13.4 g/dL
same,K+,[11],4.6 mEq/l
same,MCH,[11],12.3 pg
same,MCHC,[11],33.1 g/dL
same,MCV,[11],37.1 fL
same,Na+,[11],153 mEq/l
same,Phos,[11],7.5 mg/dL
same,Platlet Count,[11],319000 µL⁻¹
same,RBC,[11],1.09e+07 µL⁻¹
same,Total Bili,[11],0 mg/dL
same,Total Prot,[11],6.8 g/dL
same,WBC,[11],3470 µL⁻¹
same,ALT,[12],8 U/L
same,AST,[12],69 U/L
same,Albumin,[12],3.9 g/dL
same,Alk Phos,[12],33 U/L
same,BUN,[12],14 mg/dL
same,CPK,[12],94 U/L
same,Cholesterol,[12],3.5 mg/dL
same,Creatinine,[12],1.2 mg/dL
same,Differential Count: Atyp lym,[12],0%
same,Differential Count: Bands,[12],0%
same,Differential Count: Eosin,[12],1%
same,Differential Count: Lymph,[12],33%
same,Differential Count: Mono,[12],5%
same,Differential Count: Seg,[12],61%
same,Gamma GT,[12],74 U/L
same,Glucose,[12],89 mg/dL
same,Hct,[12],31.4%
same,Hgb,[12],10.2 g/dL
same,K+,[12],4.2 mEq/l
same,MCH,[12],12.3 pg
same,MCHC,[12],32.3 g/dL
same,MCV,[12],38.2 fL
same,Na+,[12],150 mEq/l
same,Phos,[12],48 mg/dL
same,Platlet Count,[12],173000 µL⁻¹
same,RBC,[12],8.23e+06 µL⁻¹
same,Total Bili,[12],0.2 mg/dL
same,Total Prot,[12],7.4 g/dL
same,WBC,[12],3170 µL⁻¹
same,ALT,[13],13 U/L
same,AST,[13],59 U/L
same,Albumin,[13],3.5 g/dL
same,Alk Phos,[13],55 U/L
same,BUN,[13],17 mg/dL
same,CPK,[13],93 U/L
same,Cholesterol,[13],62 mg/dL
same,Creatinine,[13],1.3 mg/dL
same,Differential Count: Atyp lym,[13],1%
same,Differential Count: Bands,[13],0%
same,Differential Count: Eosin,[13],5%
same,Differential Count: Lymph,[13],40%
same,Differential Count: Mono,[13],5%
same,Differential Count: Seg,[13],49%
same,Gamma GT,[13],42 U/L
same,Glucose,[13],61 mg/dL
same,Hct,[13],39.2%
same,Hgb,[13],12.2 g/dL
same,K+,[13],4.8 mEq/l
same,MCH,[13],12.0 pg
same,MCHC,[13],31.8 g/dL
same,MCV,[13],37.6 fL
same,Na+,[13],147 mEq/l
same,Phos,[13],5.9 mg/dL
same,Platlet Count,[13],214000 µL⁻¹
same,RBC,[13],1.04e+07 µL⁻¹
same,Total Bili,[13],0.1 mg/dL
same,Total Prot,[13],6.4 g/dL
same,WBC,[13],3590 µL⁻¹
